# Patent publication EP4772520A1, “NOVEL PRODRUG-TYPE ANTICANCER AGENT TARGETING CANCER-SPECIFIC ENZYME ACTIVITY” (priority 2023, dated 2025)
# Like-named read-outs stand apart in the source and are kept apart here.
# Legend:
# [1] = target: T1, Human β-Galactosidase 1 (GLB1) (Homo sapiens, UniProt P16278); assay: Evaluation of drug release using LC-MS; format: biochemical; details: GLB1 purified enzyme added
# T1 sequence (P16278 29-677): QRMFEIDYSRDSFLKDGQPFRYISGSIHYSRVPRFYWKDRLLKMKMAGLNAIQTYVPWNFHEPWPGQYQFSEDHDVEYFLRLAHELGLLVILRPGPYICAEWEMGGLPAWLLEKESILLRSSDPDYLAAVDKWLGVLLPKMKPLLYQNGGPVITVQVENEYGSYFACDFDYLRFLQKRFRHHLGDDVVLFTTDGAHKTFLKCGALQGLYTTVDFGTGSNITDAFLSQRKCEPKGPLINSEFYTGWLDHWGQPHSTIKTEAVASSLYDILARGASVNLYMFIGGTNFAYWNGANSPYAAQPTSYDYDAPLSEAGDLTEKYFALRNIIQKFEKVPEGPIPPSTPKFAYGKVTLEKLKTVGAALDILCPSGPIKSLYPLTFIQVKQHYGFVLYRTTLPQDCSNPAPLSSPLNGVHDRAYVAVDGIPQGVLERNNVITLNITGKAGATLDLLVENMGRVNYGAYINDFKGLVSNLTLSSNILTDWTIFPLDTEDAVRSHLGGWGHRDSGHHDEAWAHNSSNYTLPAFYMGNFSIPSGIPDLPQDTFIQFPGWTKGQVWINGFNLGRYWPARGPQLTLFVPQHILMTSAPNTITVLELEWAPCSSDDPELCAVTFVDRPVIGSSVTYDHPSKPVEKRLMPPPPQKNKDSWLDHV
# Excerpt: Reactivity with Human β-Galactosidase 1 (GLB1), which is an assumed target enzyme of SN38-βGal, was confirmed using LC-MS.
# [2] = Kinetic test in intraperitoneal administration; format: in vivo, Mice; details: 30 mg/kg i.p.
# Experimental: A specific procedure of the pharmacokinetics test is shown below. • (1) SN38-βGal (30 mg/kg) was dissolved in 100 µL of PBS and administered by i.p. • (2) 150 to 200 µL of anesthesia (in the case of a mixture of three types of Domitor + Betorphal + Mitazolam) was intraperitoneally administered 5 minutes before dissection at each time. • (3) The inside of a syringe was coated with sodium heparin, and at each evaluation time, the mouse was quickly stuck to the dissecting pad, and the abdomen was opened without bleeding, and whole blood was collected from the right ventricle with a 23 G needle. 100 µM β-Galactosidase inhibitor was added to whole blood. • (4) After whole blood collection, brain, heart, lung, liver, pancreas, spleen, kidney, stomach, small intestine, large intestine, muscle, and fat were taken out. As the muscle, a muscle near the thigh was resected. The weight of each organ was measured. • (5) Whole blood was centrifuged at 1200 G for 15 min at 4°C, and 200 µL of supernatant was collected. 800 µL of a solution of MeOH/MeCN = 1:1 (containing Rhodamine 123 = 25 µM as an internal standard) was added thereto, and the mixture was allowed to stand for 10 minutes. • (6) After standing, centrifugation was performed at 1700 G for 15 min at 4°C, and the supernatant was collected. About 80 µL of the mixture was fractionated, loaded on a Cosmo Spin Filter G (0.2 um), centrifuged at 12000 G for 5 min at 4°C, and filtered to collect a sample. • (7) Each resected organ was finely cut and put into a tube of Lysing Matrix D, 1000 µL of Lysis Buffer (added with 100 µM β-Galactosidase inhibitor) was added thereto, and the mixture was crushed with a shaker. • (8) The supernatant was collected from the tube of Lysing Matrix, and then centrifuged at 10,000 G for 5 min at 4°C to collect the supernatant to obtain a lysate solution. • (9) To 100 µL of the organ lysate solution, 200 µL of MeOH/MeCN = 1:1 (containing 30 µM of Rhodamine 123 as an internal standard) was added, and the mixture was allowed to stand for 10 minutes. • (10) Centrifugation was performed at 1700 G for 15min at 4°C to collect 200 µL of the supernatant. The supernatant was loaded on a Cosmo Spin Filter G (0.2 µm) and centrifuged at 12000 G for 5 min at 4°C to collect a sample. • (11) 50 µL of purified water and 50 µL of a filtered plasma sample or organ lysate sample were mixed, 10 µL of the mixture was injected into HPLC, and data of the area under the curve of the PDA spectrum at 380 nm (derived from SN 38) and 490 nm (derived from Rhodamine 123) were acquired, and then the respective numerical values were calculated from the volume for blood and the weight for organs by one inspection amount of Rhodamine 123.
# A specific procedure of the intraperitoneal concentration evaluation test is shown below. • (1) Intraperitoneal administration (i.p.) was performed on an evaluation amount of the drug. • (2) 2.0 mL of PBS was administered by i.p. at each evaluation time, and the abdomen was immediately massaged and sacrificed so that the drug could be collected as much as possible on the PBS side after administration. A small hole was made in the abdomen, and PBS in the abdominal cavity was quickly collected with a 1.0 mL syringe in a pushing manner, and this solution was used as an peritoneal washing solution. • (3) To 200 µL of the collected peritoneal washing solution, 800 µL (containing Rhodamine 123 = 25 µM) of 800 µL MeCN/MeOH = 1:1 was added to precipitate proteins. The supernatant was collected by centrifugation at 1700 G for 5 min at 4°C. • (4) 80 µL of the recovered supernatant was loaded on a cosmo spin filter G and centrifuged at 12000 G for 5 min at 4°C, and 50 µL of purified water was added to 50 µL of the recovered material to adjust the total amount to 100 µL to prepare a sample. • (5) The concentration of SN38-βGal was measured by HPLC, and the concentration of the recovered peritoneal washing solution was calculated.
smiles,measurement,setting,value
CCc1c2c(nc3ccc(O[C@@H]4O[C@H](CO)[C@H](O)[C@H](O)[C@H]4O)cc13)-c1cc3c(c(=O)n1C2)COC(=O)[C@]3(O)CC [SN38-βGal],release of SN38,[1],the release of SN38 showing an anticancer effect was confirmed
same,time of highest blood concentration,[2],around 10 minutes
same,organ distribution,[2]; 10 minutes to 60 minutes after administration,"the absorption from the small intestine was large, and only a slight distribution was confirmed in the brain"
same,intraperitoneal concentration,[2]; at 30 minutes,about 17%
same,half-life,"[2]; mouse, blood, ip, read-out: blood half-life",~30 min
same,AUC(0-inf),"[2]; mouse, in vivo, ip",15900 ng·h/mL
same,AUC(0-t) at 1 h,"[2]; mouse, in vivo, ip, read-out: AUC0-1h",15400 ng·h/mL
same,half-life,"[2]; mouse, in vivo, ip, read-out: t1/2 (converted)",11.8 min
